According to ChEMBL document CHEMBL1131838, “8-acenaphthen-1-yl-1-phenyl-1,3,8-triaza-spiro[4.5]decan-4-one derivatives as orphanin FQ receptor agonists” (Bioorg Med Chem Lett, 1999):
Active and inactive are the calls of the source. The rule behind the calls is not given here.

Tests used:
[1] = Compound was evaluated for the opioid receptor agonistic activity at dose 1-10 mg/kg by intraperitoneal administration; Inactive; assay type: functional, organism-based
Rattus norvegicus [2] = test: Forced motor performance in rats was determined and grip strength was reported at 0.32 mg/kg by ip administration; assay type: functional; settings: route intraperitoneal
[3] = target: 5-hydroxytryptamine receptor 1D (Homo sapiens, UniProt P28221); test: Affinity against 5-hydroxytryptamine 1D receptor alpha
Rattus norvegicus [4] = test: Forced motor performance in rats was determined and grip strength was reported at 1 mg/kg by ip administration; assay type: functional; settings: route intraperitoneal
D(2) dopamine receptor = D(2) dopamine receptor (Homo sapiens, UniProt P14416); test: Affinity against Dopamine receptor D2
Rattus norvegicus [5] = test: Spontaneous locomotion in rats was determined and distance moved was reported at dose 3.2 mg/kg by ip administration; assay type: functional; settings: route intraperitoneal
Rattus norvegicus [6] = test: Spontaneous locomotion in rats was determined and distance moved was reported at dose 0.32 mg/kg by ip administration; assay type: functional; settings: route intraperitoneal
Rattus norvegicus [7] = test: Forced motor performance in rats was determined and traction test score was reported at 1 mg/kg by ip administration; assay type: functional; settings: route intraperitoneal
D(3) dopamine receptor = D(3) dopamine receptor (Homo sapiens, UniProt P35462); test: Affinity against Dopamine receptor D3
[8] = target: 5-hydroxytryptamine receptor 6 (Homo sapiens, UniProt P50406); test: Affinity against 5-hydroxytryptamine 6 receptor
Rattus norvegicus [9] = test: Forced motor performance in rats was determined and grip strength was reported at 3.2 mg/kg by ip administration; assay type: functional; settings: route intraperitoneal
D(4) dopamine receptor = target: T1, D(4) dopamine receptor (Homo sapiens, UniProt P21917); test: Affinity against Dopamine receptor D4.4
T1 sequence (P21917 whole entry): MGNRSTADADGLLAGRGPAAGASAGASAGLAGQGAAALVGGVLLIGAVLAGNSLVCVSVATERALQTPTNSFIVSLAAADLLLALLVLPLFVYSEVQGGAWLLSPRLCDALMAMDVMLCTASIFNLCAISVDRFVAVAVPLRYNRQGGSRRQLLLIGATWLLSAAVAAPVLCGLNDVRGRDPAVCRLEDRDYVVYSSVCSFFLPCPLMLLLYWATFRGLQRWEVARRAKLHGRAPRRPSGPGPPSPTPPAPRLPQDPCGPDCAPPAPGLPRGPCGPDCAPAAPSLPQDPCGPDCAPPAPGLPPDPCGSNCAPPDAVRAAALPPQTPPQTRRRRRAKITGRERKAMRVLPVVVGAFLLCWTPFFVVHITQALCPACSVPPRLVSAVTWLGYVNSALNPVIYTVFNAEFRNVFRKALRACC

Rattus norvegicus [10] = test: Forced motor performance in rats was determined and traction test score was reported at 3.2 mg/kg by ip administration; assay type: functional; settings: route intraperitoneal
[11] = target: T2, 5-hydroxytryptamine receptor 2C (Homo sapiens, UniProt P28335); test: Affinity against 5-hydroxytryptamine 2C receptor
T2 sequence (P28335 whole entry): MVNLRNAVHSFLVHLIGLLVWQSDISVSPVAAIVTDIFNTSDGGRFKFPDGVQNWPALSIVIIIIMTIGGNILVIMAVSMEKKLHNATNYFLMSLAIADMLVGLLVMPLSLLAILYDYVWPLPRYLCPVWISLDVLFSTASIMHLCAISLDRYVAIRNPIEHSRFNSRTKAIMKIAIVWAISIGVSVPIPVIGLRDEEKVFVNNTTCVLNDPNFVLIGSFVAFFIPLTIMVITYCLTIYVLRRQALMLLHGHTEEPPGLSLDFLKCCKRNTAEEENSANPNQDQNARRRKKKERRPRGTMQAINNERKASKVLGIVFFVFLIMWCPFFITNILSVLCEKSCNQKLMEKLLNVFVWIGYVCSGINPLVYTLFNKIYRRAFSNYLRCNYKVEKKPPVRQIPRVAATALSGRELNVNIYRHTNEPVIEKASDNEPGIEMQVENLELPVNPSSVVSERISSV

D(1A) dopamine receptor = D(1A) dopamine receptor (Mus musculus, UniProt Q61616); test: Affinity against Dopamine receptor D1
[12] = target: GABA-A receptor; anion channel; test: Binding affinity for GABA-A central benzodiazepine receptor; assay type: protein-complex assay
[13] = target: 5-hydroxytryptamine receptor 7 (Homo sapiens, UniProt P34969); test: Affinity against 5-hydroxytryptamine 7 receptor
[14] = Affinity against Corticotropin releasing factor receptor 2 alpha
[15] = target: 5-hydroxytryptamine receptor 2A (Homo sapiens, UniProt P28223); test: Affinity against 5-hydroxytryptamine 2A receptor
Rattus norvegicus [16] = test: Forced motor performance in rats was determined and traction test score was reported at 0.32 mg/kg by ip administration; assay type: functional; settings: route intraperitoneal
Rattus norvegicus [17] = test: Spontaneous locomotion in rats was determined and distance moved was reported at dose 1 mg/kg by ip administration; assay type: functional; settings: route intraperitoneal
[18] = target: T3, Corticotropin-releasing factor receptor 1 (Rattus norvegicus, UniProt P35353); test: Affinity against Corticotropin releasing factor receptor 1
T3 sequence (P35353 whole entry): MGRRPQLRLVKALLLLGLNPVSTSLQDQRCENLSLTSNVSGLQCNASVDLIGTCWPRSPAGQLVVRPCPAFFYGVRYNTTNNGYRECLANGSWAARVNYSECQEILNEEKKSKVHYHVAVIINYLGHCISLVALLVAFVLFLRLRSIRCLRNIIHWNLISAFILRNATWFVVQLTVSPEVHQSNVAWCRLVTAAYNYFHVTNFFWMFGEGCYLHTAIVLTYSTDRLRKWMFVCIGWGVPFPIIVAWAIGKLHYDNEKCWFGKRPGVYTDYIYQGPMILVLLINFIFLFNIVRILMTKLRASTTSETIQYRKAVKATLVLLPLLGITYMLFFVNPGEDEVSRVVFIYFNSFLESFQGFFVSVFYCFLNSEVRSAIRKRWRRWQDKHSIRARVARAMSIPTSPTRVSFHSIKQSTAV

Sequence of D(3) dopamine receptor (P35462 whole entry): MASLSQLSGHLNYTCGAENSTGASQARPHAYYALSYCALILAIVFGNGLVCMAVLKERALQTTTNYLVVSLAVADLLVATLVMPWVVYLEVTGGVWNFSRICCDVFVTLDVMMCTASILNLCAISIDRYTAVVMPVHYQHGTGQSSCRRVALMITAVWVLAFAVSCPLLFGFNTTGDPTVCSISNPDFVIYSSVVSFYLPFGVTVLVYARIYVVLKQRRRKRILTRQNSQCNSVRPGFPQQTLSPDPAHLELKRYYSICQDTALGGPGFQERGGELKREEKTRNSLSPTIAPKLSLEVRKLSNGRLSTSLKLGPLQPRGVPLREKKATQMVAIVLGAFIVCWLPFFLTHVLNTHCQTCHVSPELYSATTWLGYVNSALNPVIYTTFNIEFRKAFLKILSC
Sequence of 5-hydroxytryptamine receptor 1D (P28221 whole entry): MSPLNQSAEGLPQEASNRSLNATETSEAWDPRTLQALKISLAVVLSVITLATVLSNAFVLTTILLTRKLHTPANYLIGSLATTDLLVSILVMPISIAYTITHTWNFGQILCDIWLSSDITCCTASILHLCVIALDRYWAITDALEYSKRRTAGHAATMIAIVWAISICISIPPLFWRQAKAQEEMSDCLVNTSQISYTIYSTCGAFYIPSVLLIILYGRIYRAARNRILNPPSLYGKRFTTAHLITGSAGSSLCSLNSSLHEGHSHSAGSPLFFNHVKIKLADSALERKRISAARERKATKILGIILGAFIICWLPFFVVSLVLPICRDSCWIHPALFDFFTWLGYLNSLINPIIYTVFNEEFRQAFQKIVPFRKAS
Sequence of D(1A) dopamine receptor (Q61616 whole entry): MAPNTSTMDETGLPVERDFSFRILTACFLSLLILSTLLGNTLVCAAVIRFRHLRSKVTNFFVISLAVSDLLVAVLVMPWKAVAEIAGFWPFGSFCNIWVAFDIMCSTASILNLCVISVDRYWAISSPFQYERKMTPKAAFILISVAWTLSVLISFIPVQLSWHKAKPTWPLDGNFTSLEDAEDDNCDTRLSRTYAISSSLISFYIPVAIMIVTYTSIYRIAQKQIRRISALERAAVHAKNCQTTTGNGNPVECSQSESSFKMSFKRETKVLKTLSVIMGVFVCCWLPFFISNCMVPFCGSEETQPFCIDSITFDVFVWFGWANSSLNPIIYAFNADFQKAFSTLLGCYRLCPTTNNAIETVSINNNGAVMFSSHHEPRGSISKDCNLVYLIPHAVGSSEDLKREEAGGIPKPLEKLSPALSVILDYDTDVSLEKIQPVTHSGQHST
Sequence of 5-hydroxytryptamine receptor 2A (P28223 whole entry): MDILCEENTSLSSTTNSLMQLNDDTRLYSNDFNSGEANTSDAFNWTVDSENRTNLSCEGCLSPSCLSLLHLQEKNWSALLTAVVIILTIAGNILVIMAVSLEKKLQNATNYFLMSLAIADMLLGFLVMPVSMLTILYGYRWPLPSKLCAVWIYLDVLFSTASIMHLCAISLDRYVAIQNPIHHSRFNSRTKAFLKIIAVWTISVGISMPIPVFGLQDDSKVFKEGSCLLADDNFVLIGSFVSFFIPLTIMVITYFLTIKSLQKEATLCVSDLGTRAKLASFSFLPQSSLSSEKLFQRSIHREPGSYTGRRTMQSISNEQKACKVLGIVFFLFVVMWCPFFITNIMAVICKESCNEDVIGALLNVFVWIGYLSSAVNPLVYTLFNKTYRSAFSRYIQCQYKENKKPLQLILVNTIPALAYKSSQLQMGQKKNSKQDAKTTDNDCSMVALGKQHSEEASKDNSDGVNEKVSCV
Sequence of D(2) dopamine receptor (P14416 whole entry): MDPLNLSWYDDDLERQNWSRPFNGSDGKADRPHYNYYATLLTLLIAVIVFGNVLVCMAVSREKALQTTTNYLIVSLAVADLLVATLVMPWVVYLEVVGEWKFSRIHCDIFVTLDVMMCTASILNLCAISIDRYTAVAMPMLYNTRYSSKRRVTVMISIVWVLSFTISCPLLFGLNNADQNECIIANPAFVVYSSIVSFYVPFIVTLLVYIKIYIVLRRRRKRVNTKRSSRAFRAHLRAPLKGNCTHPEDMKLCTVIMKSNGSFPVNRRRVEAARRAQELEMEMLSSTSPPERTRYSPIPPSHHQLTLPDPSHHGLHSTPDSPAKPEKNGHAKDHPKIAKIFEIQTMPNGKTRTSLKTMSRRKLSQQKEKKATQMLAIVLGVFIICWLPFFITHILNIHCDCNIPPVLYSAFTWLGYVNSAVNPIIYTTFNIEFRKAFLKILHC
Sequence of 5-hydroxytryptamine receptor 6 (P50406 whole entry): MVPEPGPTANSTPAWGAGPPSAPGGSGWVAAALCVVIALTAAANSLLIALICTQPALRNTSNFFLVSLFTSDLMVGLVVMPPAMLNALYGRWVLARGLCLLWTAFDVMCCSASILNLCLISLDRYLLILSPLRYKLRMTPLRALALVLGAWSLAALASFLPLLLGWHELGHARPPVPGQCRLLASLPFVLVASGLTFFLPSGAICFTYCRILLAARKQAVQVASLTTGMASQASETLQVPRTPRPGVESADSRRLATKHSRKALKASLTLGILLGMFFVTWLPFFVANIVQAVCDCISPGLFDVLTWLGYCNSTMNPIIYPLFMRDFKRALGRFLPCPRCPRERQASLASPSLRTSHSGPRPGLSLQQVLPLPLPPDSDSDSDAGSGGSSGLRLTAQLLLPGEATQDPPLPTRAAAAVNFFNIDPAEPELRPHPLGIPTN
Sequence of 5-hydroxytryptamine receptor 7 (P34969 whole entry): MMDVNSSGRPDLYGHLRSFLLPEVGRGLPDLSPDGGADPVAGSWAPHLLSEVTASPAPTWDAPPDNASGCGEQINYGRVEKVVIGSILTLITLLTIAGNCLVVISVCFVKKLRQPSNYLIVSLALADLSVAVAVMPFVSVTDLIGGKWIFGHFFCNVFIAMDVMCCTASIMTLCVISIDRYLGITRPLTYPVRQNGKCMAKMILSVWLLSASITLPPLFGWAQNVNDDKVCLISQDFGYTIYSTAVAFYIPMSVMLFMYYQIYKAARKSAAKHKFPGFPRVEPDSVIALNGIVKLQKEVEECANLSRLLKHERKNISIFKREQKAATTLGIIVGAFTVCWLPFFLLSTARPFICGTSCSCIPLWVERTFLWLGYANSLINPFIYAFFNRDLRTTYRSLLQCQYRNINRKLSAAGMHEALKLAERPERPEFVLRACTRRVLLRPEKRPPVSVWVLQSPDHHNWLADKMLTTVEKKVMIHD

CN1CC[C@]23c4c5ccc(O)c4O[C@H]2[C@@H](O)C=C[C@H]3[C@H]1C5
Activity [1]: inactive

O=C1NCN(c2ccccc2)C12CCN([C@@H]1Cc3cccc4cccc1c34)CC2
Grip strength (Rattus norvegicus [2]): 516.25 g
Log Ki [3]: < -6.5
Grip strength (Rattus norvegicus [4]): 521.63 g
Log Ki (D(2) dopamine receptor): < -6.5
Locomotion (Rattus norvegicus [5]): 1141.08 cm
Locomotion (Rattus norvegicus [6]): 1412.39 cm
Traction test (Rattus norvegicus [7]): 4 score
Log Ki (D(3) dopamine receptor): < -6.5
Log Ki [8]: < -6.5
Grip strength (Rattus norvegicus [9]): 479 g
Log Ki (D(4) dopamine receptor): < -6.5
Traction test (Rattus norvegicus [10]): 3.75 score
Log Ki [11]: < -6.5
Log Ki (D(1A) dopamine receptor): < -6.5
Log Ki [12]: < -6.5
Log Ki [13]: < -6.5
Log Ki [14]: < -6.5
Log Ki [15]: < -6.5
Traction test (Rattus norvegicus [16]): 4 score
Locomotion (Rattus norvegicus [17]): 1465.79 cm
Log Ki [18]: < -6.5
